Columns and labels:
TrkA (h) = molecular target: T1, TrkA (h) (Homo sapiens, UniProt P04629); assay: Radiometric based mixed micelle kinase assay; format: biochemical; conditions: read-out: IC50 antagonizing the TrkA kinase activity
T1 construct: Recombinant Human Cytoplasmic Domain (amino acids 441-796); His tag; host or cells: insect cells
Protocol: Compound Inhibition in a Radiometric Based Mixed Micelle Assay:
In a final reaction volume of 25 μL, TrkA (h) (3 nM) is incubated with the kinase reaction buffer (20 mM HEPES (pH 7.5), 10 mM MgCl2, 1 mM EGTA, 0.02% Brij 35, 0.02 mg/ml BSA, 0.1 mM Na3VO4, 2 mM DTT, 1% DMSO), 0.2 mg/ml substrate PolyEY(4:1) and […], and [33P-ATP] (specific activity approx. 500 cpm/pmol, concentration as required). The reaction is initiated by the addition of the MgATP mix. After incubation for at least 40 minutes at room temperature, the reaction is stopped by the addition of 5 μL of a 3% phosphoric acid solution. 10 μL of the reaction is then spotted onto a P30 filtermat and washed three times for 5 minutes in 75 mM phosphoric acid and once in methanol prior to drying and scintillation counting. TrkA: Recombinant Human Cytoplasmic Domain (amino acids 441-796), Histidine-tagged, expressed in insect cells. Activated in vitro via auto-phosphorylation. Mw=42.8 kDa. Substrates for kinases: poly(EY) for TRKA; poly(EY)(4:1) with 2 mM MnCl2, average Mw=16 kDa Standard conditions (unless otherwise specified): 30 nM TRKA, 0.2 mg/ml poly(EY)+2 mM MnCl2, and 10 μM ([γ-^33P]) ATP. Using the similar assay condition with other kinases of recombinant human cytoplasmic domain, the activities of other kinases could be also measured.

CCI rats = assay: Chronic constriction injury (CCI) model of neuropathic pain in rats; format: in vivo, rat; conditions: CCI rats after single oral dose
From the text: Chronic Constriction Injury (CCI) Model of Neuropathic Pain in Rats.
The CCI model is one of the most commonly used mono-neuropathic pain model firstly described in details by Bennett and Xie (Bennett G J, Xie Y K. Pain. 1988; 33(1):87-107). It mimics important clinical chronic pain symptoms such as mechanical allodynia and thermal hyperalgesia. Chronic constriction injury of the sciatic nerve was produced by tying four loose ligatures around the left sciatic nerve according to the method of Bennett and Xie. […] Calibrated von Frey filaments were used to determine the lowest mechanical (tactile) threshold required to evoke a brisk paw withdrawal reflex in the rat hindpaws. Rats were allowed to acclimatize in wire mesh cages for 15-20 min prior to von Frey testing. Assessment of paw withdrawal thresholds (PWTs) using von Frey filaments was undertaken prior to CCI-surgery (pre-surgery baseline on day 0). Before the drug dosing on day 14, the pre-dose baseline was recorded for each rat. […] Drug-naïve CCI-rats (n=4-6 per group) were used. The oral vehicle was 0.5% CMC-Na/0.1% Tween 80 in distilled water. The positive control gabapentin was dissolved in the vehicle and orally given at 100 mg/kg (by oral gavage). Test compound was suspended in the vehicle and orally given at 50 mg/kg and 100 mg/kg. […]

T1 sequence (P04629 441-796): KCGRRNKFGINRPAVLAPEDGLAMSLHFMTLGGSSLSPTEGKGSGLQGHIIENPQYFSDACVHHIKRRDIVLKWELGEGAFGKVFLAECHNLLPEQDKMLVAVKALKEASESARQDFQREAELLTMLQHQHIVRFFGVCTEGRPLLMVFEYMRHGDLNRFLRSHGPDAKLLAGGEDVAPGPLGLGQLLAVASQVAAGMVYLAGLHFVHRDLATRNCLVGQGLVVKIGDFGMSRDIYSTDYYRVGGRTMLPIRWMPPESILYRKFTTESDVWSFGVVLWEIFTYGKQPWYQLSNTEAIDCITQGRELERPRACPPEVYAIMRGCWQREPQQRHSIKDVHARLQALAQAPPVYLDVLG

| SMILES | IC50 (TrkA (h)) [nM] | Observed side effects (drowsiness, motor incoordination, other abnormality) (CCI rats) |
| --- | --- | --- |
| Cc1ccc(Cl)cc1N1CCN(CCCNC(=O)c2ccc3c(c2)NC(=O)C2CCCCN32)CC1 (centres unmarked) [Compound 201, N-{3-[4-(5-chloro-2-methylphenyl)piperazin-1-yl]propyl}-6-oxo-6,6a,7,8,9,10-hexahydro-5H-pyrido[1,2-a]quinoxaline-3-carboxamide] | 85 | – |
| NCC1(CC(=O)O)CCCCC1 [gabapentin] | – | drowsiness or motor incoordination |
